Laboratory results reported in publication PMC9696832, “Pyrazole-Based Thrombin Inhibitors with a Serine-Trapping Mechanism of Action: Synthesis and Biological Activity” (Pharmaceuticals, 2022).
Like-named read-outs stand apart in the source and are kept apart here.

Key:
human α-thrombin = molecular target: T1, human α-thrombin (Homo sapiens, UniProt P00734); test: Serine protease inhibition assay, fluorogenic substrate: thrombin; format: biochemical
T1 construct: human α-thrombin (active) protein; purchased antibodies-online ABIN2127880
Procedure: Serine protease inhibition assays. The inhibitory activity of synthesized compounds towards thrombin, FXIIa, FXa, FXIa, plasmin, plasma kallikrein, chymotrypsin, and trypsin was measured by quantifying the hydrolysis rate of the fluorogenic substrate as reported previously [14, 17]. Briefly, the activity was tested in buffer (10 mM Tris-Cl, 150 mM NaCl, 10 mM MgCl2·6H2O, 1 mM CaCl2·2H2O, 0.1% w/v BSA, 0.01% v/v Triton-X100, pH = 7.4) utilizing clear flat-bottom, black polystyrene 96 well-plates. […] The fluorogenic substrate solution was added into the wells followed by the addition of 2 µL of test-compounds solution, and the reaction was triggered by addition of the enzyme solution (final testing volume–152 µL). In case of blank (substrate + buffer) and control (substrate + enzyme) wells, 2 µL of DMSO was added instead of the test-compounds’ solution. […] To derive IC50 values, endpoint RFU (single fluorescence reading) was used. Sigmoidal curves were prepared in GraphPad Prism software and IC50 values were derived from the fitted curves [14, 17].

human β-FXIIa = molecular target: T2, human β-FXIIa (Homo sapiens, UniProt P00748); test: Serine protease inhibition assay, fluorogenic substrate: FXIIa; format: biochemical; conditions: for IC50: read-out: Serine Protease IC50 ± SD, FXIIa
T2 construct: human β-FXIIa, HFXIIAB; purchased Molecular Innovations HFXIIAB
Procedure: Serine protease inhibition assays. The inhibitory activity of synthesized compounds towards thrombin, FXIIa, FXa, FXIa, plasmin, plasma kallikrein, chymotrypsin, and trypsin was measured by quantifying the hydrolysis rate of the fluorogenic substrate as reported previously. Briefly, the activity was tested in buffer (10 mM Tris-Cl, 150 mM NaCl, 10 mM MgCl2·6H2O, 1 mM CaCl2·2H2O, 0.1% w/v BSA, 0.01% v/v Triton-X100, pH = 7.4) utilizing clear flat-bottom, black polystyrene 96 well-plates. […] Dilutions of test-compounds ranging from 2 nM to 32 µM (final concentrations) in DMSO were prepared. The fluorogenic substrate solution was added into the wells followed by the addition of 2 µL of test-compounds solution, and the reaction was triggered by addition of the enzyme solution (final testing volume–152 µL). In case of blank (substrate + buffer) and control (substrate + enzyme) wells, 2 µL of DMSO was added instead of the test-compounds’ solution. Fluorescence intensity was measured with Microplate Reader Mithras LB 940 (Berthold Technologies, excitation at 355 nm, emission at 460 nm) for a period of 1 h (thrombin, FXIIa, FXa, FXIa, and trypsin), 30 min (plasma kallikrein, chymotrypsin), or 15 min (plasmin) with a read every minute. The reactions were performed at 25 °C. To derive IC50 values, endpoint RFU (single fluorescence reading) was used. Sigmoidal curves were prepared in GraphPad Prism software and IC50 values were derived from the fitted curves.

[1] = read-out: Serine Protease IC50 ± SD, Thrombin
[2] = [S]0 = 25 µM Boc-Val-Pro-Arg-AMC, Km = 18 ± 1 µM, triplicate, 25 °C, read-out: Serine Protease IC50 ± SD, Thrombin

T2 sequence (P00748 373-615 limits assumed, other chains not shown): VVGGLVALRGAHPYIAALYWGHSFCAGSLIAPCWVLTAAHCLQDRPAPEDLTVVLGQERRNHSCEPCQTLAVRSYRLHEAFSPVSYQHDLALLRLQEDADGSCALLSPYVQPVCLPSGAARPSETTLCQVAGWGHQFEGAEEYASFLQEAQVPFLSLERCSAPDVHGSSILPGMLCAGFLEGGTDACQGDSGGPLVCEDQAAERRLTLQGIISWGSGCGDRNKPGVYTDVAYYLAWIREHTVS

| Compound | melting point | IC50 (human α-thrombin; [1]) [µM] | IC50 (human β-FXIIa) [µM] | also measured |
| --- | --- | --- | --- | --- |
| O=c1c2ccccc2n(Cc2ccccc2)c2cc(C3CCCCC3)nn12 [10h, 4-benzyl-2-cyclohexylpyrazolo[5,1-b]quinazolin-9(4H)-one] | 180 to 181 °C | > 5 | > 5 | – |
| CC(C)(C)C(=O)n1nc(-c2ccccc2)cc1NCc1ccc(Cl)s1 [24g, 1-(5-{[(5-chlorothiophen-2-yl)methyl]amino}-3-phenyl-1H-pyrazol-1-yl)-2,2-dimethylpropan-1-one] | – | – | > 5 | IC50 (human α-thrombin; [2]): 0.419 ± 0.099 µM |
| CC(C)(C)C(=O)n1nc(-c2cccnc2)cc1NCc1cccc2ccccc12 [24c, 2,2-dimethyl-1-(5-{[(naphthalen-1-yl)methyl]amino}-3-(pyridin-3-yl)-1H-pyrazol-1-yl)propan-1-one] | 130 to 131 °C | – | > 5 | IC50 (human α-thrombin; [2]): > 5 µM |
| O=c1c2ccccc2n(Cc2ccc(Cl)s2)c2cc(C3CCCCC3)nn12 [10i, 4-[(5-chlorothiophen-2-yl)methyl]-2-cyclohexylpyrazolo[5,1-b]quinazolin-9(4H)-one] | 210 °C | > 5 | > 5 | – |
| O=c1c2ccccc2n(Cc2ccc(Cl)s2)c2cc(-c3cccnc3)nn12 [10e, 4-[(5-chlorothiophen-2-yl)methyl]-2-(pyridin-3-yl)pyrazolo[5,1-b]quinazolin-9(4H)-one] | 248 to 249 °C | > 5 | > 5 | – |
| Nc1cc(-c2ccccc2)nn1C(=O)c1ccccc1 [29b, (5-amino-3-phenyl-1H-pyrazol-1-yl)(phenyl)methanone] | – | > 5 | > 5 | – |
| O=c1c2ccccc2[nH]c2nc(-c3ccncc3)nn12 [compound 22, 2-(pyridin-4-yl)-[1,2,4]triazolo[5,1-b]quinazolin-9(4H)-one] | – | > 5 | – | – |
| COc1ccc(Cn2c3ccccc3c(=O)n3nc(-c4cccnc4)cc23)cc1 [10b, 4-(4-methoxybenzyl)-2-(pyridin-3-yl)pyrazolo[5,1-b]quinazolin-9(4H)-one] | 245 °C | > 5 | > 5 | – |
| O=C(c1ccccc1I)n1nc(-c2cccnc2)cc1NCC1CCCCC1 [9f, {5-[(cyclohexylmethyl)amino]-3-(pyridin-3-yl)-1H-pyrazol-1-yl}(2-iodophenyl)methanone] | – | > 5 | > 5 | – |
| O=c1c2ccccc2n(Cc2ccccc2)c2cc(-c3cccnc3)nn12 [10a, 4-benzyl-2-(pyridin-3-yl)pyrazolo[5,1b]quinazolin-9(4H)-one] | 266 °C | > 5 | > 5 | – |
| O=c1[nH]c2cc(-c3cccnc3)nn2c2ccccc12 [compound 15, 2-(pyridin-3-yl)pyrazolo[1,5-a]quinazolin-5(4H)-one] | – | > 5 | > 5 | – |
| O=c1c2ccccc2n(Cc2ccc(Cl)s2)c2cc(-c3ccccc3)nn12 [10g, 4-[(5-chlorothiophen-2-yl)methyl]-2-phenylpyrazolo[5,1-b]quinazolin-9(4H)-one] | – | > 5 | > 5 | – |
| Nc1cc(-c2cccnc2)nn1C(=O)c1ccccc1 [29a, [5-amino-3-(pyridin-3-yl)-1H-pyrazol-1-yl](phenyl)methanone] | – | > 5 | > 5 | – |
| O=c1[nH]c2nc(-c3ccncc3)nn2c2ccccc12 [compound 23, 2-(pyridin-4-yl)-[1,2,4]triazolo[1,5-a]quinazolin-5(4H)-one] | – | > 5 | > 5 | – |
| O=C(Nc1cc(-c2cccnc2)n[nH]1)c1ccccc1I [compound 14, 2-iodo-N-[3-(pyridin-3-yl)-1H-pyrazol-5-yl]benzamide] | – | > 5 | > 5 | – |
| O=c1[nH]c2nc(-c3cccnc3)nn2c2ccccc12 [compound 21, 2-(pyridin-3-yl)-[1,2,4]triazolo[1,5-a]quinazolin-5(4H)-one] | – | > 5 | > 5 | – |
| [H]/N=C(/N)c1ccc(NCc2nc3cc(C(=O)N(CCC(=O)O)c4ccccn4)ccc3n2C)cc1 [Dabigatran, reference compound] | – | – | > 5 | – |
| O=c1c2ccccc2[nH]c2nc(-c3cccnc3)nn12 [compound 20, 2-(pyridin-3-yl)-[1,2,4]triazolo[5,1-b]quinazolin-9(4H)-one] | – | > 5 | > 5 | – |
| COc1ccc(CNc2cc(-c3cccnc3)nn2C(=O)C(C)(C)C)cc1 [24b, 1-{5-[(4-methoxybenzyl)amino]-3-(pyridin-3-yl)-1H-pyrazol-1-yl}-2,2-dimethylpropan-1-one] | 130 °C | – | > 5 | IC50 (human α-thrombin; [2]): 1.282 ± 0.009 µM; IC50 (human α-thrombin; read-out: thrombin IC50): ~1.3 µM |
| O=c1c2ccccc2n(Cc2ccc(Cl)s2)c2nc(-c3cnccn3)nn12 [compound 19, 4-[(5-chlorothiophen-2-yl)methyl]-2-(pyrazin-2-yl)-[1,2,4]triazolo[5,1-b]quinazolin-9(4H)-one] | – | > 5 | > 5 | – |
| CC(C)(C)C(=O)n1nc(-c2cccnc2)cc1NCc1ccco1 [24d, 1-(5-{[(furan-2-yl)methyl]amino}-3-(pyridin-3-yl)-1H-pyrazol-1-yl)-2,2-dimethylpropan-1-one] | – | – | > 5 | IC50 (human α-thrombin; [2]): 1.31 ± 0.032 µM; IC50 (human α-thrombin; read-out: thrombin IC50): ~1.3 µM |
| O=C(c1ccccc1I)n1nc(-c2cccnc2)cc1NCc1ccc(Cl)s1 [9e, (5-{[(5-chlorothiophen-2-yl)methyl]amino}-3-(pyridin-3-yl)-1H-pyrazol-1-yl)(2-iodophenyl)methanone] | – | 0.165 ± 0.005 | > 5 | fold more potent thrombin inhibitor than 3-phenyl-substituted counterpart 9g (human α-thrombin; IC50 165 nM vs. 1.3 μM): about 8 fold |
| O=C(c1ccccc1I)n1nc(C2CCCCC2)cc1NCc1ccccc1 [9h, [5-(benzylamino)-3-cyclohexyl-1H-pyrazol-1-yl](2-iodophenyl)methanone] | – | > 5 | > 5 | – |
| O=C(c1ccccc1I)n1nc(-c2cccnc2)cc1NCc1ccccc1 [9a, [5-(benzylamino)-3-(pyridin-3-yl)-1H-pyrazol-1-yl](2-iodophenyl)methanone] | 115 °C | > 5 | > 5 | – |
| O=C(c1ccccc1I)n1nc(-c2cccnc2)cc1NCc1cccc2ccccc12 [9c, (2-iodophenyl)(5-{[(naphthalen-1-yl)methyl]amino}-3-(pyridin-3-yl)-1H-pyrazol-1-yl)methanone] | 137 °C | > 5 | > 5 | – |
| CC(C)(C)C(=O)n1nc(C2CCCCC2)cc1NCc1ccccc1 [24h, 1-[5-(benzylamino)-3-cyclohexyl-1H-pyrazol-1-yl]-2,2-dimethylpropan-1-one] | 47 °C | – | > 5 | thrombin inhibitory properties (in words) (human α-thrombin): inactive; IC50 (human α-thrombin; [2]): > 5 µM; FXIIa inhibitory properties (in words) (human β-FXIIa): inactive |
| O=C(Nc1cc(-c2cccnc2)n[nH]1)c1ccccc1 [26a, N-[3-(pyridin-3-yl)-1H-pyrazol-5-yl]benzamide] | 270 °C (dec.) | – | – | – |
| O=c1c2ccccc2n(CC2CCCCC2)c2cc(-c3cccnc3)nn12 [10f, 4-(cyclohexylmethyl)-2-(pyridin-3-yl)pyrazolo[5,1-b]quinazolin-9(4H)-one] | – | > 5 | > 5 | – |
| O=C(c1ccccc1I)n1nc(C2CCCCC2)cc1NCc1ccc(Cl)s1 [9i, (5-{[(5-chlorothiophen-2-yl)methyl]amino}-3-cyclohexyl-1H-pyrazol-1-yl)(2-iodophenyl)methanone] | – | – | > 5 | thrombin inhibitory properties (in words) (human α-thrombin): no activity; IC50 (human α-thrombin; [2]): > 5 µM |
